The record followed here is patent US11548870B2, “Compounds useful as inhibitors of helios protein” (Bristol-Myers Squibb Company, priority 2019, dated 2023).

One experiment deals with T1, Ikaros (Homo sapiens, UniProt Q13422).
T1 construct: fluorescently labelled antibodies against Helios and Ikaros; endogenous in cells; host or cells: Jurkat cells
Put plainly: Helios Cellular Degradation Assay, Ikaros readout (flow cytometry, Ikaros-Alexa488 antibody staining, 72 h). The format is cell-based. Conditions: Jurkat cells, 72 h incubation, flow cytometry; for Dmax: Jurkat, read-out: Ikaros Dmax. The protocol:
(§1) Helios Cellular Degradation Assay
(§2) Jurkat cells were plated at 80,000 cells/well in 40 μL RPMI+10% FBS in a 384 well cell culture plate prior to using acoustic dispensing technology for adding compound of interest. Cell cultures were incubated for 72 h at 37° C. and 5% CO2. In order to facilitate analysis, cell cultures were spun down at 200 rpm for 5 min and the supernatant was discarded. After shaking the plate to dislodge the cell pellet, cells were resuspended in 50 μL of Fixation Buffer (eBioScience FoxP3 buffer set 0000) for 60 min at room temperature. After centrifuging and discarding the supernatant, cells were permeabilized with 50 μL of Permeabilization buffer (eBioScience FoxP3 buffer set 00-5523-00) for 10 min at room temperature. Following permeabilization, cells were spun down and the supernatant was replaced with 20 μL fluorescently labelled antibodies against Helios and Ikaros or corresponding Isotype controls in 1× Permeabilization buffer (Ikaros-Alexa488 [Biolegend, Cat #368408, 1:50], Helios-PE [CST, Cat #29360, 1:50]) and staining reactions were incubated for 1 h at room temperature; protected from light. Subsequently, 30 μL of 1× Permeabilization buffer was added prior to centrifuging the cells and discarding the supernatant. Stained cells were resuspended in 25 μL of flow cytometry staining buffer (PBS+0.2% BSA) and analyzed using an Intellicyt Ique Plus flow cytometer.
as §2, with “00-5523-00)” for “0000)”
(In general: A flow cytometer gives signals particle by particle.)

A further experiment addresses T2, Helios (Homo sapiens, UniProt Q96SW2+Q9UKS7).
T2 construct: fluorescently labelled antibodies against Helios and Ikaros; endogenous in cells; host or cells: Jurkat cells
Put plainly: Helios Cellular Degradation Assay (flow cytometry, Helios-PE antibody staining, 72 h). In kind it is cell-based. As to conditions: Jurkat cells, 72 h incubation, flow cytometry; for Dmax: Jurkat, read-out: Helios Dmax. The protocol:
as §1, §2
as §2, with “00-5523-00)” for “0000)”

T2 sequence (Q9UKS7 whole entry): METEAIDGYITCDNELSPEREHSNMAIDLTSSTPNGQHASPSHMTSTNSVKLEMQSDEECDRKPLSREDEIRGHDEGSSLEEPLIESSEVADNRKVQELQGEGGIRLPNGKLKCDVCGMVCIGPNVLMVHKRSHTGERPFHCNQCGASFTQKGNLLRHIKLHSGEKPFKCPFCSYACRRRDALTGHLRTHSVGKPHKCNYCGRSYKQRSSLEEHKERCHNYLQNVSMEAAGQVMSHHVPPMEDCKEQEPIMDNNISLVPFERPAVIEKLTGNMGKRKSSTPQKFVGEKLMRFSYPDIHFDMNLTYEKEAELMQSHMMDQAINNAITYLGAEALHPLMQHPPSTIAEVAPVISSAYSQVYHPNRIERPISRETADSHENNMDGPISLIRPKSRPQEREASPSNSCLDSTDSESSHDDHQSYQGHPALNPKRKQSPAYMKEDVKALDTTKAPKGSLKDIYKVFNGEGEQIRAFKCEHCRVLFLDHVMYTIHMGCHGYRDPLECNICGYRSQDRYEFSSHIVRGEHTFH
T2 sequence (Q96SW2 whole entry): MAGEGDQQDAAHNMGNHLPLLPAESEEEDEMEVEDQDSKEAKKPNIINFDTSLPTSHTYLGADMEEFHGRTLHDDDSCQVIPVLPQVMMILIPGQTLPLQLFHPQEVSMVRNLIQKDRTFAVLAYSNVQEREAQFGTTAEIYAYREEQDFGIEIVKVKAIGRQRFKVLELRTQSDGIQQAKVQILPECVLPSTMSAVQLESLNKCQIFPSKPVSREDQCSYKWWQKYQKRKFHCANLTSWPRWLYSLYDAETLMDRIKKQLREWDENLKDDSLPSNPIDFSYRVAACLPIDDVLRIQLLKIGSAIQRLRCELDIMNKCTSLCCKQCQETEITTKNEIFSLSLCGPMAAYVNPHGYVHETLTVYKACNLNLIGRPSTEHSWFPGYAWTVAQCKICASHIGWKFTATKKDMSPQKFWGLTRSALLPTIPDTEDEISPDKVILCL
T2 sequence (Q16531 whole entry partner): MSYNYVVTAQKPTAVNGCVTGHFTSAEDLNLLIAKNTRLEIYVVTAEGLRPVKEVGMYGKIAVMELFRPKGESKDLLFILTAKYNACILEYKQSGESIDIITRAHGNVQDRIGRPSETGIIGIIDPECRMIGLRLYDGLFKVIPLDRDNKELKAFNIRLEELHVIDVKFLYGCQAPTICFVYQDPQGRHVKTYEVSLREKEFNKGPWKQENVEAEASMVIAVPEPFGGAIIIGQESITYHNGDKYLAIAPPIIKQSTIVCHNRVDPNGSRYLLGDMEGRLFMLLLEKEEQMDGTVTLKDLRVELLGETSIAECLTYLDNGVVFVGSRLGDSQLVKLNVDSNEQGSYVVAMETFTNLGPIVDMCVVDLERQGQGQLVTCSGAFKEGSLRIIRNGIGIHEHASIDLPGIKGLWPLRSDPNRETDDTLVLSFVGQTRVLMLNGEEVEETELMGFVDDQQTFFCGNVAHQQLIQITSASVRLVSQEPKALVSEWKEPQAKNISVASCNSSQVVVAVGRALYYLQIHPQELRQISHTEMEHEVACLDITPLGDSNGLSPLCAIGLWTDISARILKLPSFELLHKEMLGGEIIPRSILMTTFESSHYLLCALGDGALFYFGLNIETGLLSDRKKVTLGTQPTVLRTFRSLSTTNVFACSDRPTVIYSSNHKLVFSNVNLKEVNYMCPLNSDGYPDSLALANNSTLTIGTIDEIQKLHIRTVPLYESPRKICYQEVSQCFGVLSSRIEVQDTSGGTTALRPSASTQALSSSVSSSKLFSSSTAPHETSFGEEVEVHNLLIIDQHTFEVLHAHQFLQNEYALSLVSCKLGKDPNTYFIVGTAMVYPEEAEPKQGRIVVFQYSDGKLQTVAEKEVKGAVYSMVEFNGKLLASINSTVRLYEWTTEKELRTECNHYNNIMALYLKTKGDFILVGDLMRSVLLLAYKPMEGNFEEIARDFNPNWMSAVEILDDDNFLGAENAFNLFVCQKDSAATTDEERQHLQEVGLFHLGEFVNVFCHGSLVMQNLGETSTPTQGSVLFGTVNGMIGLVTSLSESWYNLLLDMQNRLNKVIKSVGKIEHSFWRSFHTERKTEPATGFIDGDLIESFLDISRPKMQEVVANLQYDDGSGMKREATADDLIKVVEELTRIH
T1 sequence (Q96SW2 whole entry partner): as the sequence (Q96SW2 whole entry) above
T1 sequence (Q16531 whole entry partner): as the sequence (Q16531 whole entry partner) above
T1 sequence (Q13422 whole entry): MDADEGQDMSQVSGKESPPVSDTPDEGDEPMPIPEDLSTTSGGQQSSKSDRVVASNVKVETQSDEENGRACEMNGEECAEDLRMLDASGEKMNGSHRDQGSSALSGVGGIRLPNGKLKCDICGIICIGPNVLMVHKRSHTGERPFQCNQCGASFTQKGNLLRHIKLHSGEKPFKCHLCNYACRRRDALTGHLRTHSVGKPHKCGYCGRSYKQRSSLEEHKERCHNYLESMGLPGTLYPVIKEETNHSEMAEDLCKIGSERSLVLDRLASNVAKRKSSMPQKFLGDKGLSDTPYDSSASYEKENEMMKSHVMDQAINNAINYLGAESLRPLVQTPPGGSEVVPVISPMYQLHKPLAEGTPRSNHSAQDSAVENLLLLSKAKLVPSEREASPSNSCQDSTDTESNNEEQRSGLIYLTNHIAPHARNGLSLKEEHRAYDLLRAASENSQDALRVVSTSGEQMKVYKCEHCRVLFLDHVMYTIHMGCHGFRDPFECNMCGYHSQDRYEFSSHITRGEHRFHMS

On to `O=C1CCC(N2Cc3cc(-c4cc(CN5CCC(Cc6ccccc6)CC5)ccn4)ccc3C2=O)C(=O)N1` (centres unmarked) [Example 38, 3-(5-(4-((4-benzylpiperidin-1-yl)methyl)pyridin-2-yl)-1-oxoisoindolin-2-yl)piperidine-2,6-dione], for which the DC50 at Ikaros was more than 10 µM; at Helios, 0.087 µM. The Dmax on Ikaros turned out to be 6%; at Helios, 68%.

As for `O=C1CCC(N2Cc3cc(-c4cc(CN5CCc6ccccc6C5)ccn4)ccc3C2=O)C(=O)N1` (centres unmarked) [Example 39, 3-(5-(4-((3,4-dihydroisoquinolin-2(1H)-yl)methyl)pyridin-2-yl)-1-oxoisoindolin-2-yl)piperidine-2,6-dione], on Ikaros, the DC50 is more than 10 µM and the Dmax was found to be 6%. On Helios, it took 0.444 µM to reach half-maximal degradation (DC50) and the Dmax came out at 58%.

As for `CN(C)C1CCN(Cc2ccnc(-c3ccc4c(c3)CN(C3CCC(=O)NC3=O)C4=O)c2)CC1` (centres unmarked) [Example 40, 3-(5-(4-((4-(dimethylamino)piperidin-1-yl)methyl)pyridin-2-yl)-1-oxoisoindolin-2-yl)piperidine-2,6-dione], at Ikaros, the DC50 is more than 10 µM and the maximal degradation (Dmax) amounted to 8%. In addition, at Helios, the DC50 was more than 10 µM and the Dmax was found to be 9%.

Regarding `NC(=O)C1CCN(Cc2ccnc(-c3ccc4c(c3)CN(C3CCC(=O)NC3=O)C4=O)c2)CC1` (centres unmarked) [Example 41, 1-((2-(2-(2,6-dioxopiperidin-3-yl)-1-oxoisoindolin-5-yl)pyridin-4-yl)methyl)piperidine-4-carboxamide], at Ikaros, the DC50 was more than 10 µM and the Dmax came out at 24%. At Helios, the DC50 amounted to 0.727 µM and the Dmax was 80%.

With `O=C1CCC(N2Cc3cc(-c4cc(CN5CCC(C(c6ccccc6)c6ccccc6)CC5)ccn4)ccc3C2=O)C(=O)N1` (centres unmarked) [Example 42, 3-(5-(4-((4-benzhydrylpiperidin-1-yl)methyl)pyridin-2-yl)-1-oxoisoindolin-2-yl)piperidine-2,6-dione], at Ikaros, the DC50 was more than 10 µM and the Dmax stood at 7%. At Helios, the DC50 was more than 10 µM and the Dmax stood at 3%.

With `CN1CCCN(Cc2ccnc(-c3ccc4c(c3)CN(C3CCC(=O)NC3=O)C4=O)c2)CC1` (centres unmarked) [Example 43, 3-(5-(4-((4-methyl-1,4-diazepan-1-yl)methyl)pyridin-2-yl)-1-oxoisoindolin-2-yl) piperidine-2,6-dione], the DC50 on Ikaros and on Helios was more than 10 µM throughout. The Dmax on Ikaros was determined as 3%; on Helios, 10%.

As for `CC(C)N1CCN(Cc2ccnc(-c3ccc4c(c3)CN(C3CCC(=O)NC3=O)C4=O)c2)CC1` (centres unmarked) [Example 44, 3-(5-(4-((4-isopropylpiperazin-1-yl)methyl)pyridin-2-yl)-1-oxoisoindolin-2-yl)piperidine-2,6-dione], the DC50 on Ikaros and on Helios was more than 10 µM throughout. Moreover, the Dmax at Ikaros amounted to 12%; at Helios, 36%.

For `CN(C)[C@@H]1CCN(Cc2ccnc(-c3ccc4c(c3)CN(C3CCC(=O)NC3=O)C4=O)c2)C1` (stereo partly drawn) [Example 45, 3-(5-(4-(((R)-3-(dimethylamino)pyrrolidin-1-yl)methyl)pyridin-2-yl)-1-oxoisoindolin-2-yl)piperidine-2,6-dione], the DC50 at Ikaros and on Helios was more than 10 µM in each case. Also, the values for the Dmax at Ikaros and at Helios were 6% and 43%, respectively.

For the compound `CC1CCN1Cc1ccnc(-c2ccc3c(c2)CN(C2CCC(=O)NC2=O)C3=O)c1` (centres unmarked) [Example 46, 3-(5-(4-((2-methylazetidin-1-yl)methyl)pyridin-2-yl)-1-oxoisoindolin-2-yl)piperidine-2,6-dione], at Ikaros, the DC50 was more than 10 µM and the Dmax came to 6%. Besides, at Helios, the DC50 amounted to 0.018 µM and the Dmax amounted to 83%.

For the compound `CC1CN(Cc2ccnc(-c3ccc4c(c3)CN(C3CCC(=O)NC3=O)C4=O)c2)C1` (centres unmarked) [Example 47, 3-(5-(4-((3-methylazetidin-1-yl)methyl)pyridin-2-yl)-1-oxoisoindolin-2-yl)piperidine-2,6-dione], at Ikaros, the DC50 was more than 10 µM and the Dmax amounted to 8%. Besides, on Helios, half-maximal degradation (DC50) was put at 0.017 µM and the Dmax was determined as 79%.

With `O=C1CCC(N2Cc3cc(-c4cc(CN5CCCCCC5)ccn4)ccc3C2=O)C(=O)N1` (centres unmarked) [Example 48, 3-(5-(4-(azepan-1-ylmethyl)pyridin-2-yl)-1-oxoisoindolin-2-yl)piperidine-2,6-dione], on Ikaros, the DC50 was more than 10 µM and the Dmax is 6%. Also, on Helios, the DC50 was determined as 0.032 µM and the Dmax worked out at 72%.

Turning to `CN1CCC(N(C)Cc2ccnc(-c3ccc4c(c3)CN(C3CCC(=O)NC3=O)C4=O)c2)C1` (centres unmarked) [Example 49, 3-(5-(4-((methyl(1-methylpyrrolidin-3-yl)amino)methyl)pyridin-2-yl)-1-oxoisoindolin-2-yl)piperidine-2,6-dione], at Ikaros, the DC50 is more than 10 µM and the “Ikaros Dmax” value turned out to be 3%. At Helios, the DC50 was more than 10 µM and the “Helios Dmax” value was found to be 29%.

Regarding `CCN(CC)Cc1ccnc(-c2ccc3c(c2)CN(C2CCC(=O)NC2=O)C3=O)c1` (centres unmarked) [Example 50, 3-(5-(4-((diethylamino)methyl)pyridin-2-yl)-1-oxoisoindolin-2-yl)piperidine-2,6-dione], the DC50 on Ikaros is more than 10 µM; on Helios, 0.022 µM. In addition, the Dmax was 12% on Ikaros and 78% at Helios.

On to `CC1(C)CN(Cc2ccnc(-c3ccc4c(c3)CN(C3CCC(=O)NC3=O)C4=O)c2)C1` (centres unmarked) [Example 51, 3-(5-(4-((3,3-dimethylazetidin-1-yl)methyl)pyridin-2-yl)-1-oxoisoindolin-2-yl)piperidine-2,6-dione], for which, at Ikaros, the DC50 is more than 10 µM and the Dmax stood at 11%. Besides, at Helios, the 50% degradation concentration (DC50) was 0.064 µM and the Dmax turned out to be 70%.

Turning to `CC1(C)CCN1Cc1ccnc(-c2ccc3c(c2)CN(C2CCC(=O)NC2=O)C3=O)c1` (centres unmarked) [Example 52, 3-(5-(4-((2,2-dimethylazetidin-1-yl)methyl)pyridin-2-yl)-1-oxoisoindolin-2-yl)piperidine-2,6-dione], on Ikaros, the DC50 was more than 10 µM and the Dmax was determined as 10%. For the same compound, at Helios, half-maximal degradation (DC50) was put at 0.3 µM and the Dmax was 67%.

Turning to `CC1CCCC(C)N1Cc1ccnc(-c2ccc3c(c2)CN(C2CCC(=O)NC2=O)C3=O)c1` (centres unmarked) [Example 53, 3-(5-(4-((2,6-dimethylpiperidin-1-yl)methyl)pyridin-2-yl)-1-oxoisoindolin-2-yl)piperidine-2,6-dione], at Ikaros, the DC50 is more than 10 µM and the Dmax came out at 21%. Besides, on Helios, the DC50 was 0.231 µM and the Dmax came to 77%.

In the case of `O=C1CCC(N2Cc3cc(-c4cc(CNCC5CCCCC5)ccn4)ccc3C2=O)C(=O)N1` (centres unmarked) [Example 54, 3-(5-(4-(((cyclohexylmethyl)amino)methyl)pyridin-2-yl)-1-oxoisoindolin-2-yl)piperidine-2,6-dione], on Ikaros, the half-maximal degradation concentration (DC50) was more than 10 µM and the Dmax worked out at 12%. Moreover, at Helios, the DC50 was 0.016 µM and the maximal degradation (Dmax) stood at 83%.

`CC(NCc1ccnc(-c2ccc3c(c2)CN(C2CCC(=O)NC2=O)C3=O)c1)c1ccccc1` (centres unmarked) [Example 55, 3-(1-oxo-5-(4-(((1-phenylethyl)amino)methyl)pyridin-2-yl)isoindolin-2-yl) piperidine-2,6-dione]: the DC50 on Ikaros is more than 10 µM; at Helios, 0.009 µM. Moreover, the Dmax was found to be 10% at Ikaros and 91% on Helios.

As for `Cc1ccccc1CNCc1ccnc(-c2ccc3c(c2)CN(C2CCC(=O)NC2=O)C3=O)c1` (centres unmarked) [Example 56, 3-(5-(4-(((2-methylbenzyl)amino)methyl)pyridin-2-yl)-1-oxoisoindolin-2-yl)piperidine-2,6-dione], at Ikaros, the DC50 was more than 10 µM and the greatest degradation seen (Dmax) was determined as 18%. On Helios, the DC50 turned out to be 0.013 µM and the Dmax stood at 88%.

With `Cc1cccc(CNCc2ccnc(-c3ccc4c(c3)CN(C3CCC(=O)NC3=O)C4=O)c2)c1` (centres unmarked) [Example 57, 3-(5-(4-(((3-methylbenzyl)amino)methyl)pyridin-2-yl)-1-oxoisoindolin-2-yl)piperidine-2,6-dione], on Ikaros, the DC50 is more than 10 µM and the Dmax amounted to 0%. Further, at Helios, the half-maximal degradation concentration (DC50) is more than 10 µM and the Dmax was determined as 32%.

As a reminder, the DC50 is the concentration at which degradation of the target reaches its halfway point. Lower therefore signals degradation at low concentration. A word on the Dmax: it is the greatest extent of degradation seen.
